# Key:
# [1] = instrument: TW, calibrated with phosphatidylcholines (ESI+) and phosphatidylethanolamines (ESI-)
# [2] = instrument: DT, stepped-field
smiles,measurement,setting,value
CCCCCCCCCCCCCCCC(=O)N[C@@H](CO)[C@H](O)CCCCCCCCCCCCCCC [Cer(d18:0/16:0)],collision cross section (N2),[1]; [M+H]+,255.1 Å²
CCCCCCCCCCCCC=CC[C@@H](O)[C@H](CO)NC(=O)CCCCCCCCCCCCCCCCC [Cer(d18:0/18:1)],collision cross section (N2),[1]; [M+H]+,261.3 Å²
CCCCCCCCCCCCCCCCCCCCCC(=O)N[C@@H](CO)[C@H](O)CCCCCCCCCCCCCCC [Cer(d18:0/22:0)],collision cross section (N2),[1]; [M+H]+,274.1 Å²
CCCCCCCCCCCCCCCCCCCCCCCC(=O)N[C@@H](CO)[C@H](O)CCCCCCCCCCCCCCC [Cer(d18:0/24:0)],collision cross section (N2),[1]; [M+H]+,279.6 Å²
CCCCCCCCCCCCC=CC[C@@H](O)[C@H](CO)NC(=O)CCCCCCCCCCCCCCCCCCCCCCCCC [Cer(d18:0/26:1)],collision cross section (N2),[1]; [M+H]+,284.5 Å²
CCCCCCCCCCCCC=CC[C@@H](O)[C@H](CO)NC(=O)CCCCCCCCCCCCCCC [Cer(d18:1/16:0)],collision cross section (N2),[1]; [M-H]-,243.7 Å²
CCCCCCCCCCCCC=CC[C@@H](O)[C@H](CO)NC(=O)CCCCCCCCCCCCCCCCC [Cer(d18:1/18:0)],collision cross section (N2),[1]; [M+H]+,261.2 Å²
same,collision cross section (N2),[1]; [M-H]-,249.7 Å²
CCCCCCCCCCCCC=CC[C@@H](O)[C@H](CO)NC(=O)CCCCCCCCCCCCCCCCCCCCCCCCC [Cer(d18:1/26:0)],collision cross section (N2),[1]; [M+H]+,284.4 Å²
CCCCC/C=C\C/C=C\CCCCCCCCCCCC(=O)O[C@@H](CO)COC(=O)CCCCCCCCCCCCC [DG(18:1/18:1)],collision cross section (N2),[1]; [M+H-H2O]+,263.5 Å²
CCCCCCCCCCCCCC/C=C\OC[C@@H](O)COP(=O)([O-])OCC[NH3+] [LPE(p16:0)],collision cross section (N2),[1]; [M+H]+,215.6 Å²
same,collision cross section (N2),[1]; [M+Na]+,214.7 Å²
same,collision cross section (N2),[1]; [M-H]-,204.7 Å²
CCCCCCCC/C=C\CCCCCC/C=C\OC[C@@H](O)COP(=O)([O-])OCC[NH3+] [LPE(p18:1)],collision cross section (N2),[1]; [M+H]+,217.2 Å²
same,collision cross section (N2),[1]; [M+Na]+,216.5 Å²
same,collision cross section (N2),[1]; [M-H]-,208.9 Å²
CC/C=C\C/C=C\C/C=C\C/C=C\C/C=C\C/C=C\CCC(=O)O[C@H](COC(=O)CCCCCCCCCCCCCCC)COP(=O)(O)O [PA(38:6)],collision cross section (N2),[1]; [M-H]-,260.9 Å²
CCCCC/C=C\C/C=C\C/C=C\CCCCC(=O)OC[C@H](COP(=O)(O)OCCN)OC(=O)CCCCCCCCCCC/C=C\C/C=C\CCCCC [PE(40:05)],collision cross section (N2),[2]; [M+2Na-H]+,289.53 Å²
same,collision cross section (N2),[2]; [M+Na]+,289.38 Å²
same,collision cross section (N2),[2]; [M-H]-,280.89 Å²
CCCCCC/C=C\CCCCCCCC(=O)O[C@H](COCCCCCCCCCCCCCCCCCC)COP(=O)(O)OCCN [PE(o34:01)],collision cross section (N2),[2]; [M+2Na-H]+,276.22 Å²
same,collision cross section (N2),[2]; [M+Na]+,275.79 Å²
CCCCCCCC/C=C\CCCCCCCCCC(=O)O[C@H](COCCCCCCCCCCCCCCCC)COP(=O)(O)OCCN [PE(o36:01)],collision cross section (N2),[2]; [M+2Na-H]+,283.23 Å²
same,collision cross section (N2),[2]; [M+H]+,277.08 Å²
same,collision cross section (N2),[2]; [M+Na]+,281.66 Å²
CCCCC/C=C\C/C=C\CCCCCCCC(=O)O[C@H](COCCCCCCCCCCCCCCCCCC)COP(=O)(O)OCCN [PE(o36:02)],collision cross section (N2),[2]; [M+2Na-H]+,280.9 Å²
same,collision cross section (N2),[2]; [M+H]+,274.98 Å²
same,collision cross section (N2),[2]; [M+Na]+,280.37 Å²
CC/C=C\C/C=C\C/C=C\C/C=C\C/C=C\C/C=C\CCC(=O)O[C@H](COCCCCCCCCCCCCCCCC)COP(=O)(O)OCCN [PE(o38:06)],collision cross section (N2),[2]; [M+2Na-H]+,280.85 Å²
CC/C=C\C/C=C\C/C=C\C/C=C\C/C=C\C/C=C\CCC(=O)O[C@H](COCCCCCCCCCCCCCCCCCC)COP(=O)(O)OCCN [PE(o40:06)],collision cross section (N2),[2]; [M+2Na-H]+,288.19 Å²
CCCCCCCC/C=C\CCCCCCCC(=O)OC[C@H](COP(=O)(O)OC[C@H](N)C(=O)O)OC(=O)CCCCCCC/C=C\CCCCCCCC [PS(36:02)],collision cross section (N2),[2]; [M+2Na-H]+,285.97 Å²
same,collision cross section (N2),[2]; [M+H]+,280.92 Å²
same,collision cross section (N2),[2]; [M+K]+,285.23 Å²
same,collision cross section (N2),[2]; [M-H]-,281.82 Å²
CCCCCCCCCC/C=C\CCCCCCCCCC(=O)O[C@H](COC(=O)CCCCCCCCCCCCCCC)COP(=O)(O)OC[C@H](N)C(=O)O [PS(38:01)],collision cross section (N2),[2]; [M+2Na-H]+,295.38 Å²
same,collision cross section (N2),[2]; [M+H]+,289.63 Å²
CCCCC/C=C\C/C=C\CCCCCCCCCCCC(=O)O[C@H](COC(=O)CCCCCCC/C=C\CCCCCC)COP(=O)(O)OC[C@H](N)C(=O)O [PS(38:03)],collision cross section (N2),[2]; [M-H]-,286.53 Å²
CCCCC/C=C\C/C=C\C/C=C\C/C=C\CCCCCC(=O)O[C@H](COC(=O)CCCCCCCCCCCCCCCC)COP(=O)(O)OC[C@H](N)C(=O)O [PS(39:04)],collision cross section (N2),[2]; [M+2Na-H]+,291.95 Å²
CCCCCCCC/C=C\CCCCCCCCCC(=O)OC[C@H](COP(=O)(O)OC[C@H](N)C(=O)O)OC(=O)CCCCCCCCCCCCCCCCCCC [PS(40:01)],collision cross section (N2),[2]; [M+2Na-H]+,301.13 Å²
same,collision cross section (N2),[2]; [M+H]+,295.93 Å²

# Source: the C3SDB collision cross section collection
